Experimental findings from PubChem BioAssay (NCI) are described below.

Some test systems named below: A498 renal; HCT-15 colon; IGROV1 ovarian; NCI-H23 lung; RPMI-8226 leukemia; SF-295 CNS; SNB-75 CNS; SR leukemia; T-47D breast; U251 CNS.
Experiment in all cases: DTP human tumour cell line panel, 48 h

The structures appear in SMILES notation.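 Following 48 hours of exposure in 96-well plates, responses at five concentrations were used to interpolate endpoints linearly. At the GI50, growth is halved. The concentration for full growth arrest is given as TGI.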 Bounds are passed on as bounds.

For `COc1ccc(Cn2cc3c(c2-c2ccccc2)CCc2cnoc2-3)cc1OC`, the GI50 with A498 renal was 0.253 µM; in the test with HCT-15 colon it was 0.522 µM; with IGROV1 ovarian, 1.59 µM; with NCI-H23 lung it was 1.46 µM; in the test with RPMI-8226 leukemia, 3.16 µM; in the test with SF-295 CNS, 0.34 µM. The GI50 in the test with SNB-75 CNS was 0.669 µM; in the test on SR leukemia it was 0.353 µM; with T-47D breast it was 0.664 µM; in the test on U251 CNS, 0.774 µM. Also, the TGI was 3.27 µM with A498 renal; above 100 µM with HCT-15 colon; above 100 µM in the test on IGROV1 ovarian; above 100 µM in the test on NCI-H23 lung; above 100 µM in the test on RPMI-8226 leukemia; above 100 µM with SF-295 CNS. Further, the TGI is 5.26 µM with SNB-75 CNS, above 100 µM in the test with SR leukemia, 71.2 µM in the test with T-47D breast and above 100 µM with U251 CNS.
Regarding `C[C@@H]1CCC([C@@H](C)[C@H]2CC[C@H]3[C@@H]4CC[C@H]5C[C@@H](O)CC[C@]5(C)[C@H]4CC[C@]23C)=NC1`, the TGI in the test on A498 renal was above 100 µM; in the test with HCT-15 colon it was 44.8 µM; in the test on IGROV1 ovarian, above 100 µM; in the test on NCI-H23 lung, above 100 µM; with RPMI-8226 leukemia, above 20.4 µM; in the test with SF-295 CNS, above 43.6 µM. The TGI with SNB-75 CNS is above 71 µM; in the test with SR leukemia, above 100 µM; with T-47D breast, above 61.9 µM; in the test with U251 CNS, above 86.4 µM.
